Assay results published in patent US4507318A, “1-Aryl 2-aminomethyl cyclopropane carboxylates (Z) as drugs in the treatment of pain” (Pierre Fabre S.A., priority 1981, dated 1985).
Counter-ions that a name gives are not always drawn. Like-named read-outs stand apart in the source and are kept apart here.

What was measured:
Solubility in water = type: physicochemical
[1] = Toxicity study (ED50 orally and intraperitoneally, method of Miller and Tainter); conditions: in vivo
Procedure: The most interesting compounds of the present invention were subjected to toxicity studies.
The ED50 was determined orally and intraperitoneally and calculated by the method of MILLER and TAINTER (Proc. Soc. Exper. […]. 1944, 57, 261).

mice [2] = assay: Hot Plate, analgesic activity; type: in vivo
Procedure: The products were tested subcutaneously in mice (50 mg/kg) by the method of N. B. EDDY and D. LEIMBACH, J. Pharm. Exptl. Therap., 1953, 107, 385.

mice [3] = assay: Writhing Syndrome (P.B.Q.), analgesic activity after I.P. p-benzoquinone; type: in vivo; conditions: Mus musculus, po, P.O., read-out: Writhing Syndrome PBQ-ED50 (P.O.)
Procedure: (a) Writhing Syndrome (P.B.Q.)
After I.P. administration of p-benzoquinone to mice, the products were tested by the method of R. OKUN, S. C. LIDDON and L. LASAGNA, J. Pharmacol. Exptl. Therap., 1963, 139, 107. The results are expressed in ED50 in Table 1.

[4] = ip, intraperitoneally, read-out: ED50 intraperitoneally
[5] = po, per os, read-out: ED50 per os

Molecule `CCOC(=O)[C@]1(c2ccccc2)C[C@@H]1CN1CCCC1` (relative stereo) [Example 1, 1-phenyl 1-ethoxycarbonyl-2-pyrrolidinomethyl cyclopropane hydrochloride (Z)] has a solubility (Solubility in water) of 500 mg/mL.
Molecule `CCOC(=O)[C@]1(c2ccccc2)C[C@@H]1CNCCc1ccccc1` (relative stereo) [Example 2, Hydrochloride of 1-phenyl-1-ethoxycarbonyl-2-(2-phenylethyl)amino-methyl cyclopropane (Z)] has a solubility (Solubility in water) of 500 mg/mL.
With `CCOC(=O)[C@]1(c2ccccc2)C[C@@H]1CNC` (relative stereo) [Example 3, Hydrochloride of 1-phenyl 1-ethoxycarbonyl-2-methyl amino-methyl cyclopropane (Z)] the solubility (Solubility in water) was 500 mg/mL.
With `CCOC(=O)[C@]1(c2ccccc2)C[C@@H]1CN(CC)CC` (relative stereo) [Example 4, Hydrochloride of 1-phenyl 1-ethoxycarbonyl-2-diethyl amino-methyl cyclopropane (Z)] the solubility (Solubility in water) was 500 mg/mL.
`CCOC(=O)[C@]1(c2ccccc2)C[C@@H]1CN(C)Cc1ccccc1` (relative stereo) [Example 5, Hydrochloride of 1-phenyl 1-ethoxycarbonyl-2-(benzylmethylaminomethyl)cyclopropane (Z)] gave a solubility (Solubility in water) of 100 mg/mL.
For `CCOC(=O)[C@]1(c2ccccc2)C[C@@H]1CNC(C)(C)C` (relative stereo) [Example 6, Hydrochloride of 1-phenyl 1-ethoxycarbonyl-2-tertbutylamino-methyl cyclopropane (Z)], the solubility (Solubility in water) was 170 mg/mL.
Work on `CCOC(=O)[C@]1(c2ccccc2)C[C@@H]1CN(CCO)CCO` (relative stereo) [Example 7, Maleate of 1-phenyl 1-ethoxycarbonyl 2-di(2'-hydroxyethyl)amino-methyl cyclopropane (Z)] yielded a solubility (Solubility in water) of 500 mg/mL.
Molecule `CCOC(=O)[C@]1(c2ccccc2)C[C@@H]1CN1CCN(c2ccccc2)CC1` (relative stereo) [Example 8, Dihydrochloride of 1-phenyl 1-ethoxycarbonyl 2-(4'-phenyl-piperazinomethyl)cyclopropane (Z)] has a solubility (Solubility in water) of 5 mg/mL.
In the case of `CCOC(=O)[C@]1(c2ccccc2)C[C@@H]1CN1CCOCC1` (relative stereo) [Example 9, Hydrochloride of 1-phenyl 1-ethoxycarbonyl 2-morpholino methyl cyclopropane (Z)], the solubility (Solubility in water) is reported as 500 mg/mL.
`CCOC(=O)[C@]1(c2ccccc2)C[C@@H]1CN(C)CCO` (relative stereo) [Example 10, Fumarate of 1-phenyl 1-ethoxycarbonyl 2-N-(2'-hydroxyethyl)N-methyl amino-methyl cyclopropane (Z)] showed a solubility (Solubility in water) of 80 mg/mL.
Work on `C#CC(C)(C)NC[C@H]1C[C@]1(C(=O)OCC)c1ccccc1` (relative stereo) [Example 12, Hydrochloride of 1-phenyl 1-ethoxycarbonyl-2-(1'-1'-dimethyl-2'-propynylaminomethyl)cyclopropane (Z)] yielded a solubility (Solubility in water) of 30 mg/mL.
With `CCOCCNC[C@H]1C[C@]1(C(=O)OCC)c1ccccc1` (relative stereo) [Example 13, Hydrochloride of 1-phenyl 1-ethoxycarbonyl 2-(2'-ethoxyethylaminomethyl)cyclopropane (Z)] the solubility (Solubility in water) was 500 mg/mL.
For `CCOC(=O)[C@]1(c2ccccc2)C[C@@H]1CNCc1ccccc1` (relative stereo) [Example 14, Hydrochloride of 1-phenyl-1-ethoxycarbonyl 2-benzyl amino methyl cyclopropane (Z)], the solubility (Solubility in water) was 10 mg/mL.
For `CCOC(=O)[C@]1(c2ccccc2)C[C@@H]1CNC(C)C` (relative stereo) [Example 15, Hydrochloride of 1-phenyl 1-ethoxycarbonyl 2-isopropyl aminomethyl cyclopropane (Z)], the solubility (Solubility in water) was 500 mg/mL.
`CCOC(=O)[C@]1(c2ccccc2)C[C@@H]1CN(C(C)C)C(C)C` (relative stereo) [Example 16, Maleate of 1-phenyl 1-ethoxycarbonyl 2-diisopropyl aminomethyl cyclopropane (Z)] showed a solubility (Solubility in water) of 100 mg/mL.
For `CCOC(=O)[C@]1(c2ccccc2)C[C@@H]1CN(C)CC` (relative stereo) [Example 17, Fumarate of 1-phenyl 1-ethoxycarbonyl 2-(N-methyl-N-ethyl-amino)methyl cyclopropane (Z)], the solubility (Solubility in water) was 500 mg/mL.
`CCCCCN(C)C[C@H]1C[C@]1(C(=O)OCC)c1ccccc1` (relative stereo) [Example 18, Fumarate of 1-phenyl 1-ethoxycarbonyl 2-(N-methyl-N-pentylamino)methyl cyclopropane (Z)] showed a solubility (Solubility in water) of 30 mg/mL.
`CCOC(=O)[C@]1(c2ccccc2)C[C@@H]1CN(C)CCN(C)C` (relative stereo) [Example 21, Dihydrochloride of 1-phenyl 1-ethoxycarbonyl-2-(N-methyl N-(2'-dimethylamino)ethyl)aminomethyl cyclopropane (Z)] gave a solubility (Solubility in water) of 500 mg/mL.
In the case of `CCOC(=O)[C@]1(c2ccccc2)C[C@@H]1CN(C)CCc1ccccc1` (relative stereo) [Example 30], the LD50 [1, 4] is reported as 110 mg/kg, the LD50 [1, 5] is reported as 1000 mg/kg and the “Hot Plate reaction time” value (mice [2]; 50 mg/kg SC, mice) is reported as 20 s. For the same molecule, the ED50 (mice [3]) was 80 mg/kg.
`COC(=O)[C@]1(c2ccccc2)C[C@@H]1CN(C)C` (relative stereo) [Example 34, Hydrochloride of 1-phenyl 1-methoxycarbonyl 2-dimethyl-amino-methyl cyclopropane (Z)] showed a solubility (Solubility in water) of 500 mg/mL.
Molecule `CCCOC(=O)[C@]1(c2ccccc2)C[C@@H]1CN(C)C` (relative stereo) [Example 35, Fumarate of 1-phenyl 1-propyloxycarbonyl 2-dimethyl aminomethyl cyclopropane (Z)] has a solubility (Solubility in water) of 150 mg/mL.
With `CC(C)OC(=O)[C@]1(c2ccccc2)C[C@@H]1CN(C)C` (relative stereo) [Example 36, Hydrochloride of 1-phenyl 1-isopropyloxy-carbonyl 2-dimethylamino methyl cyclopropane (Z)] the LD50 [1, 4] was 130 mg/kg, the LD50 [1, 5] was 400 mg/kg and the “Hot Plate reaction time” value (mice [2]; 50 mg/kg SC, mice) was 40 s. For the same molecule, the ED50 (mice [3]) was 17 mg/kg.
With `CN(C)C[C@H]1C[C@]1(C(=O)OCc1ccccc1)c1ccccc1` (relative stereo) [Example 37, Hydrochloride of 1-phenyl 1-benzyloxy carbonyl-2-dimethyl aminomethyl cyclopropane (Z)] the LD50 [1, 4] was 130 mg/kg, the LD50 [1, 5] was 1000 mg/kg and the “Hot Plate reaction time” value (mice [2]; 50 mg/kg SC, mice) was 30 s. The ED50 (mice [3]) was 92 mg/kg.
In the case of `CCOC(=O)[C@]1(c2ccc(Cl)cc2)C[C@@H]1CN(C)C` (relative stereo) [Example 41, 1-(4'-chlorophenyl) 1-ethoxycarbonyl 2-dimethylaminomethyl cyclopropane (Z) hydrochloride], the LD50 [1, 4] is reported as 120 mg/kg, the LD50 [1, 5] is reported as 400 mg/kg and the “Hot Plate reaction time” value (mice [2]; 50 mg/kg SC, mice) is reported as 39 s. For the same molecule, the ED50 (mice [3]) was 19 mg/kg.
For `CCOC(=O)[C@]1(c2cccc(Cl)c2)C[C@@H]1CN(C)C` (relative stereo) [Example 44, Maleate of 1-(m-chlorophenyl) 1-ethoxycarbonyl 2-dimethylaminomethyl cyclopropane (Z)], the LD50 [1, 4] was 170 mg/kg, the LD50 [1, 5] was 760 mg/kg and the “Hot Plate reaction time” value (mice [2]; 50 mg/kg SC, mice) was 28 s. The ED50 (mice [3]) was 30 mg/kg.
For `CCC(=O)O[C@](Cc1ccccc1)(c1ccccc1)[C@H](C)CN(C)C` [Dextropropoxyphene, reference compound], the “Hot Plate reaction time” value (mice [2]; mouse, in vivo) was 30 s and the ED50 (mice [3]) was 30 mg/kg.
